Structures can show the parent of a compound that is named as a salt. Where two headings read alike, the source gives them in different places. Some results are limits rather than exact numbers.

Data on nine molecules can be found in patent publication US20200002354A1, “HEXAHYDROPYRAZINOBENZ- OR -PYRIDO-OXAZEPINES CARRYING AN OXYGEN-CONTAINING SUBSTITUENT AND USE THEREOF IN THE TREATMENT OF 5-HT2C-DEPENDENT DISORDERS” (AbbVie Deutschland GmbH & Co. KG, priority 2015, published 2020).

Series [1] in a line: Metabolic stability in human liver microsomes, unbound intrinsic clearance. The class given is in vitro ADME. The conditions noted are these: pH 7.4, unbound intrinsic clearance (human), Clint unbound = Cl int/fu mic, read-out: Cl int, mic unb. (h). Here is the method: Samples of the tested compounds (0.5 μM) were preincubated together with human liver microsomes (0.25 mg of microsomal protein/mL) in 0.05 M potassium phosphate buffer of pH 7.4 in microtiter plates at 37° C. for 5 minutes. The reaction was started by adding NADPH (1.0 mM). After 0, 5, 10, 15, 20 and 30 minutes, an aliquot was removed, the reaction was cooled and stopped by adding twice the amount of quench solution consisting of acetonitrile/methanol 1:1, and containing 0.2 μM carbutamide as internal standard. The samples were frozen until analyzed. The remaining concentration of undegraded test substance was determined by liquid chromatography-tandem mass spectrometry (LC-MS/MS). The half-life (t1/2) was determined from the gradient of the ratio of the signal of (test substance/internal standard)/unit time plot, allowing the calculation of the half-life of the test substance, assuming first order kinetics, from the decrease in the concentration of the compound with time. The microsomal clearance (mClint) was calculated as follows: mClint=((ln(2)/t ½)/Microsomal Protein Concentration (mg/ml))*1000, leading to the unit of uL/min/mg. The scaled clearance (mClin_scaled) was calculated as mCLint_scaled=m CLint*(Microsomal Yield (mg/kg BW))/1000000*60, leading to the units L/h/kg. The Microsomal Yield is defined by the specifics of the used microsomes. Calculations were modified from references: Di, The Society for Biomolecular Screening, 2003, 453-462; Obach, D M D, 1999 vol 27. N 11, 1350-1359.
Calculation of Unbound Intrinsic Clearance
C1int unbound=C1 int/fu mic

In series [2] the target is T1, 5-HT2C receptor (Homo sapiens, UniProt P28335).
T1 construct: host or cells: U2OS
T1 sequence (P28335 33-458): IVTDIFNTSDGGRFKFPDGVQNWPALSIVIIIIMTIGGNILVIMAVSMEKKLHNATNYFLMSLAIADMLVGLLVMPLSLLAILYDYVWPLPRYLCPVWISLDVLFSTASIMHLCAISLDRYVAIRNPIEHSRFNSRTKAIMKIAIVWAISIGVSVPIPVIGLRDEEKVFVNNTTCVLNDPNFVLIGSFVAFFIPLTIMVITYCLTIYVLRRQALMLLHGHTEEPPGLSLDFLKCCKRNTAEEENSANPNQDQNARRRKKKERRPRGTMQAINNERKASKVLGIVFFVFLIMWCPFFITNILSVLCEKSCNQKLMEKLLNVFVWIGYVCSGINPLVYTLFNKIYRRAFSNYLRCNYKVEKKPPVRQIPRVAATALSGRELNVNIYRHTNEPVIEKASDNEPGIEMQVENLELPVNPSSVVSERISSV
T1 sequence (P32121 whole entry partner): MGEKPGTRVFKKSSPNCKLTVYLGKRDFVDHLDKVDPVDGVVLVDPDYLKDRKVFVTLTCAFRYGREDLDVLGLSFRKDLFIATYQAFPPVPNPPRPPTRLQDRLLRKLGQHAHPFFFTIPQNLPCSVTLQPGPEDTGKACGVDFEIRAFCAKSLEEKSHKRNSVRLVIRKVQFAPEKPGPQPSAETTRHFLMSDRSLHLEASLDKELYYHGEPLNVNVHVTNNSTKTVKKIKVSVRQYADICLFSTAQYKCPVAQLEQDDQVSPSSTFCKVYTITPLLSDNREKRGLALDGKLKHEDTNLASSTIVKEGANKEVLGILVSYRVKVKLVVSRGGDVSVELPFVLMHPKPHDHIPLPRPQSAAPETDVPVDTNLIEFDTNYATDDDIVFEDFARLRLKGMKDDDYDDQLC
Nature of the series: Human 5-HT2C functional assay (beta-arrestin2 recruitment, U2OS_HTR2C_β-Arrestin cells). Conditions: for EC50: Potency (EC50 5-HT2C) in functional assay, agonism, read-out: EC50 5-HT2C; for Emax: relative efficacy vs maximal effect induced by 5-HT (defined as 100%). The class given is cell-based. Here is the method: 1. Human 5-HT2C Functional Assay
The functional activity of compounds of formula I was assayed by incubation with U2OS_HTR2C_β-Arrestin cells (DiscoverX, 93-0289C3) to induce beta-arrestin2 recruitment to the 5-HT2C receptor. The agonist-induced recruitment and proximity of the receptor and beta-arrestin2 leads to complementation and formation of active β-galactosidase. The enzyme complementation results in enzyme activity, which is measured following the termination of the agonist incubation using DiscoveRx's detection reagent, which contains a chemiluminescent substrate which produces a high intensity signal. Cells were plated and a medium-change to a 1% serum containing medium was performed 24 h later. The next day, test compounds were added and incubated for 1.5 h before addition of detection reagent.
The response produced was measured and compared with the response produced by 10 [mu]M 5-HT or the maximal effect induced by 5-HT (defined as 100%) to which it was expressed as a percentage response (relative efficacy).
(In general: Activated receptors often draw arrestin, which recruitment assays turn into a signal.)

For series [3], the target named is T2, human 5-HT2A receptor (Homo sapiens, UniProt P28223).
T2 construct: expressed in transfected cells; host or cells: CHO-K1
T2 sequence (P28223 whole entry): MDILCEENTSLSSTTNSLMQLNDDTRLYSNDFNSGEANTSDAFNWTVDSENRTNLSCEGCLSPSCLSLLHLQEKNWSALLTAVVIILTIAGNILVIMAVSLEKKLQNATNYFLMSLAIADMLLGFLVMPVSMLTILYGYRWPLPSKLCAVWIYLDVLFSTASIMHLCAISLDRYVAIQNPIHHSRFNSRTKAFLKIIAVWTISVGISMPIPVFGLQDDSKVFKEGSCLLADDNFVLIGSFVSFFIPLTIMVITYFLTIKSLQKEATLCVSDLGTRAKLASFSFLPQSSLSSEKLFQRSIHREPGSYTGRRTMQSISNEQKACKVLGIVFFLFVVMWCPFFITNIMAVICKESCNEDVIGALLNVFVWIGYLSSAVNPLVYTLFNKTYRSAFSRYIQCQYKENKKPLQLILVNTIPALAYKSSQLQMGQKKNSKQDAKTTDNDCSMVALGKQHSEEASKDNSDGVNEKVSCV
Nature of the series: Human 5-HT2A functional assay (calcium mobilisation in CHO-K1 cells, FLIPR). It counts as cell-based. Conditions: based on agonism: EC50 5-HT2A/EC50 5-HT2C. Here is the method:
2. Human 5-HT2A Functional Assay
Functional activity on the 5-HT2A receptor was determined by testing the effect of the compounds I on calcium mobilisation in CHO-K1 cells, stably transfected with human 5-HT2A receptor. Cells were seeded into sterile black 384-well plates with clear bottom at 25,000 cells/well in a volume of 25 μl and grown for 5-6 hours at 37° C., in 5% CO2 in tissue culture medium (“Ultra CHO” by LONZA), containing 1% dialysed FCS and 50 μg/ml gentamicin (Invitrogen). After this incubation, medium was replaced by a serum free version of the same tissue culture medium followed by incubation overnight at 37° C. and in 5% CO2. Cells were then loaded with a fluorescent calcium-sensitive dye in the presence of 0.07% probenecid for an hour at 37° C., according to the manufacturer's protocol (Ca5-Assay Kit, Molecular Devices), followed by an additional 60 min incubation at room temperature. Serial compound dilutions (final concentrations of 10^−10 to 10^−5M, prepared in HBSS+50 mM HEPES) were first added to the cells alone (“first addition” to assess agonism on the 5-HT2A receptor), then after 8 min, serotonin was added to the same wells at a final concentration of 3×10^−8 M (“second addition” to see potential antagonistic effect) and the maximal calcium response was determined using a FLIPR® Tetra instrument (Molecular Devices) in each of the two steps. The relative efficacy of the compounds was calculated as a percentage of the maximal effect induced by serotonin alone (defined as 100%). To determine EC50/IC50 values, concentration-response curves were fitted using a four-parameter logistic equation (IDBS Biobookml). Kb values were calculated from IC50 values, according to Cheng & Prusoff
A general note: Calcium flux is commonly read through the fluorescence of an indicator in the cells.

By EC50 is commonly meant the concentration at which the effect is half-maximal. As a reminder, the Emax is the size of the effect at its maximum, as opposed to the concentration needed. On to `COC[C@@H]1C[C@@H]2CNCCN2c2nccc(C(F)F)c2O1.O=C(O)C(F)(F)F` [Example 27, (6S,7aR)-4-(Difluoromethyl)-6-(methoxymethyl)-7,7a,8,9,10,11-hexahydro-6H-pyrazino[1,2-d]pyrido[3,2-b][1,4]oxazepine; 2,2,2-trifluoroacetic acid], for which, in series [1] (microsomes), the CLint scaled at 0.5 μM was < 83.3 mL/min/kg. In addition, in series [2], the EC50 was 20 to 200 nM and the Emax was > 70%. The “Selectivity over 5-HT2A” value in series [3] is on record as “++ (from >30 to 100)”.
As to `COC[C@@H]1C[C@@H]2CNCCN2c2cccc(F)c2O1.Cl` [Example 50, (4aR,6S)-8-Fluoro-6-(methoxymethyl)-2,3,4,4a,5,6-hexahydro-1H-pyrazino[2,1-d][1,5]benzoxazepine hydrochloride], the CLint scaled at 0.5 μM in series [1] (liver microsomes) is < 83.3 mL/min/kg. Besides, in series [2], the EC50 is 20 to 200 nM and the Emax was > 70%. Besides, the “Selectivity over 5-HT2A” value in series [3] is “++ (from >30 to 100)”.
On to `Cl.OC[C@@H]1C[C@@H]2CNCCN2c2cccc(Cl)c2O1` [Example 14, [(4aR,6S)-8-Chloro-2,3,4,4a,5,6-hexahydro-1H-pyrazino[2,1-d][1,5]benzoxazepin-6-yl]methanol hydrochloride], for which the CLint scaled at 0.5 μM in series [1] (microsomes) is < 83.3 mL/min/kg. In addition, in series [2], the concentration giving a half-maximal response (EC50) lay within 20 to 200 nM and the Emax is > 70%. Further, the “Selectivity over 5-HT2A” value in series [3] is “+++ (>100)”.
`COC[C@@H]1C[C@@H]2CNCCN2c2cccc(OC(F)F)c2O1` [Example 42, (4aR,6S)-8-(Difluoromethoxy)-6-(methoxymethyl)-2,3,4,4a,5,6-hexahydro-1H-pyrazino[2,1-d][1,5]benzoxazepine]: the CLint scaled at 0.5 μM in series [1] (liver microsomes) is < 83.3 mL/min/kg. In series [2], the EC50 is < 20 nM and the Emax is > 70%. Moreover, the “Selectivity over 5-HT2A” value in series [3] is “+ (from 10 to 30)”.
On to `COC[C@@H]1C[C@@H]2CNCCN2c2cc(F)cc(C3CC3)c2O1.Cl` [Example 49, (4aR,6S)-8-Cyclopropyl-10-fluoro-6-(methoxymethyl)-2,3,4,4a,5,6-hexahydro-1H-pyrazino[2,1-d][1,5]benzoxazepine hydrochloride], for which the CLint scaled at 0.5 μM in series [1] (liver microsomes) was < 83.3 mL/min/kg. Further, in series [2], the EC50 is < 20 nM and the Emax is > 70%. For the same molecule, the “Selectivity over 5-HT2A” value in series [3] was “++ (from >30 to 100)”.
As for `COC[C@@H]1C[C@@H]2CNCCN2c2cccc(C3CC3)c2O1.Cl` [Example 48, (4aR,6S)-8-Cyclopropyl-6-(methoxymethyl)-2,3,4,4a,5,6-hexahydro-1H-pyrazino[2,1-d][1,5]benzoxazepine hydrochloride], the CLint scaled at 0.5 μM in series [1] (liver microsomes) is < 83.3 mL/min/kg. Moreover, in series [2], the EC50 was < 20 nM and the Emax was > 70%. The “Selectivity over 5-HT2A” value in series [3] was “+ (from 10 to 30)”.
For `Cl.OC[C@@H]1C[C@@H]2CNCCN2c2cc(F)cc(C(F)F)c2O1` [Example 23, [(4aR,6S)-8-(Difluoromethyl)-10-fluoro-2,3,4,4a,5,6-hexahydro-1H-pyrazino[2,1-d][1,5]benzoxazepin-6-yl]methanol hydrochloride], the CLint scaled at 0.5 μM in series [1] (liver microsomes) was < 83.3 mL/min/kg. Moreover, in series [2], the EC50 is < 20 nM and the Emax is > 70%. Also, the “Selectivity over 5-HT2A” value in series [3] was “+ (from 10 to 30)”.
For the molecule `Cl.OC[C@@H]1C[C@@H]2CNCCN2c2c(F)c(F)cc(Cl)c2O1` [Example 20, [(4aR,6S)-8-Chloro-10,11-difluoro-2,3,4,4a,5,6-hexahydro-1H-pyrazino[2,1-d][1,5]benzoxazepin-6-yl]methanol hydrochloride], the CLint scaled at 0.5 μM in series [1] (liver microsomes) was < 83.3 mL/min/kg. Further, in series [2], the EC50 fell in the range of 20 to 200 nM and the Emax is > 70%. For the same molecule, the “Selectivity over 5-HT2A” value in series [3] is “+++ (>100)”.
As for `OC[C@@H]1C[C@@H]2CNCCN2c2cc(F)cc(Cl)c2O1` [Example 17, [(4aR,6S)-8-Chloro-10-fluoro-2,3,4,4a,5,6-hexahydro-1H-pyrazino[2,1-d][1,5]benzoxazepin-6-yl]methanol hydrochloride], the CLint scaled at 0.5 μM in series [1] (liver microsomes) is < 83.3 mL/min/kg. In series [2], the EC50 is < 20 nM and the Emax was > 70%.
